Results taken from patent US4032635A, “Pharmaceutical method for the therapy of immune diseases” (Zaidan Hojin Biseibutsu Kagaku Kenkyu Kai, priority 1975, dated 1977).
Like-named read-outs stand apart in the source and are kept apart here. Where a SMILES comes first, the peptide text is derived from it. [ ]: non-standard residue; d: D form. The star is where a group is joined. Sta = CC(C)C[C@H](N)[C@@H](O)CC(=O)O; Isovaleryl = CC(C)CC(=O)*

How the values were obtained:
[1] = tested on: Delayed-Type Hypersensitivity (DTH) to sheep red blood cells (SRBC); experiment: Suppression of delayed-type hypersensitivity (SRBC footpad swelling); format: in vivo, mouse; conditions: for inhibition in vivo at 1 mg: Erythrocyte, 1 mg./mouse i.p.; for suppression of DTH reaction: anti-inflammatory drugs and protease-inhibitors, 1 mg./mouse
Procedure: The compounds of Formula (I) show suppression of various delayed-type hypersensitivity. In reference to the method by Lagrange [J. Exp. Med. 139, 528 (1974)], 10^8 sheep red blood cells (SRBC) without adjuvant were subcutaneously injected into the mouse hind footpad to immunize the animal. Four days later the animals were challenged by subcutaneous injection of 10^8 SRBC into another footpad. DTH response was measured as the increase in the thickness of footpad 24 hours after the injection of SRBC.
Varying doses of Compound-1 were administered orally or intraperitoneally either at the time of immunization (day 0) or challenge (day 4).
In FIG. 1 the ordinate indicates the swelling (× 0.1 mm.) of mice footpads on day 5 and the abscissa indicates the dose of Compound-1 per mouse administered by the oral (right) and intraperitoneal (left) routes. Solid line curve indicates the relationship when Compound-1 was administered on day 0 and the dotted line curve indicates the relationship when given on day 4.
The compounds were administered intraperitoneally in a dose 1 mg./mouse at the time of immunization (day 0) or challenge (day 4). Table 1 includes the results of humoral antibody response described later.

[2] = tested on: passive cutaneous anaphylaxis (PCA); experiment: Suppression of passive cutaneous anaphylaxis (PCA); format: in vivo, guinea pigs; conditions: oral 100 mg./kg.; dilution giving a 10 mm. diameter blue zone; control 1060
Procedure: The compounds of Formula (I) are active in suppressing passive cutaneous anaphylaxis (PCA) in guinea pigs. Guinea pigs received intradarmally serial dilutions of antiserum (0.1 ml.), which was obtained from guinea pigs immunized with a mixture of egg albumin and Freund's complete adjuvant. At the time of sensitization with antiserum, the compound of Formula (I) was administered either orally (100 mg./kg.) or intraperitoneally (50 mg./kg.).
Four hours later the animals were challenged by intravenous injection of a mixture of 5 mg. egg albumin and Evans blue dye. The reaction was measured 30 minutes later by the blue zone which emerged at the point of antiserum injection.

[3] = tested on: contact allergy induced by dinitrochlorobenzene (DNCB); experiment: Suppression of contact allergy induced by dinitrochlorobenzene (DNCB); format: in vivo, guinea pigs; set-up: key to Skin Lesion Score, Animal No. 1 / Skin Lesion Score, Animal No. 2 / Skin Lesion Score, Animal No. 3: +: slight erythema; ++: marked erythema and slight swelling; +++: marked induration and swelling; conditions: 100 mg./kg. i.p. at 0.5, 24 and 48 hours before challenge
Procedure: For example, approximately 0.1 ml. of a 10% solution of DNCB in acetone was administered percutaneously on the ear. Fourteen days later animals were skin tested on a shaved flank by topical spotting (about 0.05 ml.) of a 0.1% solution of DNCB in acetone. Skin lesions were evaluated and scored 24 hours later as follows:
Guinea pigs readily develop contact hypersensitivities of the delayed-type by simple topical application of DNCB.

[4] = tested on: systemic anaphylactic shock; experiment: Suppression of systemic anaphylactic shock (egg albumin); format: in vivo, mice; conditions: 1 mg./mouse i.p. at 0.5 and 5 hours before challenge
Procedure: The mice were immunized by a subcutaneous injection of a mixture of 0.1 ml. (100 mcg.) egg albumin and 0.1 ml. Freund's complete adjuvant, and used for experiment four months thereafter. In control mice sensitized in the above manner, the shock symptom emerged after induction by intravenous injection of 100 mcg. egg albumin and most of the animals died from shock within about 40 minutes.
Table 3A show the suppression effect with Compound -1 when given as a single dose (0.25 or 1.0 mg./mouse, i.p.) at the time of sensitization. […] In the animals receiving the test drug, the time until death after induction was somewhat delayed and most of the animals survived the shock.

[5] = Acute toxicity, intraperitoneal; conditions: mouse, in vivo, ip, mice, read-out: LD50 (approximate)
Procedure: Acute toxicological studies were carried out on mice by intraperitoneal administration of the compounds of Formula (I). The approximate LD50 values for representative compounds are given as follows: […]

[6] = tested on: primary antibody formation to sheep red blood cells (SRBC), spleen cells; experiment: Suppression of primary antibody formation (plaque forming cells, Jerne's method); format: in vivo, mice (ddY-strain); conditions: Erythrocyte, ip, 96 h; 1 mg./mouse i.p.; read-out: Suppression, Plaque Forming Cells (suppression rate of primary antibody formation)
Procedure: 10^8 sheep red blood cells (SRBC) were injected intravenously into ddY-strain mice to immunize the animals, when the compounds of Formula (I) were administered intraperitoneally.
Each compound was administered intraperitoneally in the dosage of 1 mg./mouse.

rats = experiment: One-month daily administration; format: in vivo; conditions: oral or i.p., daily 12.5, 50 or 200 mg./kg.
Procedure: Compound-1 and Compound-2 were given orally or intraperitoneally to rats in daily doses of 12.5, 50 or 200 mg./kg., respectively, for one month.

[7] = tested on: humoral and cell-mediated immunities; conditions: cited from earlier work
[8] = tested on: nucleic acid and/or protein synthesis; conditions: cited from earlier work
red blood cells = experiment: Heat-induced hemolysis of red blood cells / cell membrane stabilization; format: cell-based; conditions: Compound-1 compared with mefenamic acid or indomethacin
[9] = tested on: carrageenin-induced edema; conditions: 1 mg./mouse; cited from earlier work

## O=C(Nc1cc(Cl)cc(Cl)c1O)c1ccccc1O [Compound-2, 3',5'-Dichloro-2,2'-dihydroxybenzanilide]
[1]; 96 h, at challenge (day 4), read-out: Suppression, Delayed-Type Hypersensitivity, Administered at Induction (suppression rate)
  inhibition in vivo at 1 mg: > 75%
[1]; ip, 0 h, at immunization (day 0), read-out: Suppression, Delayed-Type Hypersensitivity, Administered at Immunization (suppression rate)
  inhibition in vivo at 1 mg: 0 to 25%
[2]
  Max. Dilution of Antiserum, Oral: 736
[3]
  inhibition of the response to DNCB: significant inhibition of the response to DNCB
[3]; control None +++
  Skin Lesion Score, Animal No. 1: +
  Skin Lesion Score, Animal No. 2: ++
  Skin Lesion Score, Animal No. 3: ++
[4]; control 15
  time of death after induction, Mouse No. 1: 10 min
[4]; control 18
  time of death after induction, Mouse No. 2: 35 min
[5]
  LD50: 2500 mg/kg
[6]
  inhibition in vivo at 1 mg: > 75%
rats
  symptoms or abnormality attributable to the drug: no particular symptoms or abnormality attributable to the drug dosage was noted
  weight gain: normal

## Cn1cnc([N+](=O)[O-])c1Sc1ncnc2nc[nH]c12 [azathioprine]
[7]
  dose at which effective / cytotoxicity: effective in general only at near-lethal doses owing to their cytotoxicity
  inhibition of humoral and cell-mediated immunities: inhibit both humoral and cell-mediated immunities
[8]
  effect on nucleic acid and/or protein synthesis: disrupt nucleic acid and/or protein synthesis

## COc1ccc2c(c1)c(CC(=O)O)c(C)n2C(=O)c1ccc(Cl)cc1 [indomethacin]
Red blood cells
  suppression of heat-induced hemolysis of red blood cells: about the same extent
[1]
  suppression of DTH reaction: little suppression of this DTH reaction
[9]
  suppression of carrageenin-induced edema: strongly suppress carrageenin-induced edema

## CC(=O)N[C@@H](CC(C)C)C(=O)N[C@@H](CC(C)C)C(=O)N[C@H](C=O)CCCNC(=N)N [leupeptin, reference compound]
[1]
  suppression of DTH reaction: little suppression of this DTH reaction
[9]
  suppression of carrageenin-induced edema: strongly suppress carrageenin-induced edema

## Cc1cccc(Nc2ccccc2C(=O)O)c1C [mefenamic acid]
Red blood cells
  suppression of heat-induced hemolysis of red blood cells: about the same extent
[1]
  suppression of DTH reaction: little suppression of this DTH reaction
[9]
  suppression of carrageenin-induced edema: strongly suppress carrageenin-induced edema

## CC(C)CC(=O)N[C@H](C(=O)N[C@H](C(=O)N[C@@H](CC(C)C)[C@@H](O)CC(=O)N[C@@H](C)C(=O)N[C@@H](CC(C)C)[C@@H](O)CC(=O)O)C(C)C)C(C)C [pepstatin, reference compound] (Isovaleryl-VV[Sta]A[Sta]-OH)
[1]
  suppression of DTH reaction: little suppression of this DTH reaction
[9]
  suppression of carrageenin-induced edema: strongly suppress carrageenin-induced edema
